Assay results taken from patent publication US20100310637A1, “COMPOSITION AND METHOD FOR THE TREATMENT OR PREVENTION OF GLAUCOMA AND OCULAR HYPERTENSION” (priority 2007, published 2010).

How the values were obtained:
filtering bleb = assay: Success rate of filtering bleb after trabeculectomy; type: in vivo, rabbit; conditions: rabbits after trabeculectomy; daily injections to the filtering bleb
Description: 15 rabbits underwent trabeculectomy. Five rabbits were treated with daily insulin injections to the filtering bleb, 5 others received denaturized insulin and another 5 rabbits received same volume and same frequency of balanced salt solution. The results of successful blebs at month 4 were 4 out of 5 for the insulin group, and 2 out of 5 and 3 out of 5 for the denaturized insulin and the balanced salt solution respectively.

rat eye = assay: Reduction in intraocular pressure following topical ocular (corneal) insulin administration, rat; type: in vivo; conditions: repeated small volume applications on upper third of the cornea
Description: (§1) Several Insulin preparations were administered to the cornea of rats and rabbits by repeated small volume applications on the upper third of the cornea with necessary measures to minimize conjunctival absorption and drainage to the nasal cavity. Reductions in intraocular pressure ranged from 28% to 36.5% in the rabbit eye and 22% to 29% in the rat eye.

rabbit eye = assay: Reduction in intraocular pressure following topical ocular (corneal) insulin administration, rabbit; type: in vivo; conditions: repeated small volume applications on upper third of the cornea
Description: as §1

diabetic patients = assay: Systemic insulin and intraocular pressure in humans; type: in vivo, human
From the text: Recently there is a growing worldwide trend towards appreciating the merits of insulin in the treatment of diabetic patients. Contrary to the previous practice, patient are encouraged now to switch from oral hypoglycemic treatment to insulin treatment, or even to start therapy with insulin without a period of therapy with the oral hypoglycemic agents. Twelve diabetic patients were scheduled to start insulin therapy. […] None of them had been found with diabetic retinopathy or glaucoma. The drug prescription history was reviewed, and none of the twelve patients was found with systemic therapy that can affect the intraocular pressure measurements. So far, none of them was switched to systemic therapy with drugs that can affect the intraocular pressure. Pachymetry measurements have shown stability, without correlation with the level of intraocular pressure. There was also no correlation between blood glucose levels and the intraocular pressure. The patients were followed at 2 weeks interval in first months and then once every 3 weeks. […] After 2 months reduction in intraocular pressure was higher than 15% from baseline in all cases. At the end of 3 months the reduction in intraocular pressure for all patients ranged from 24% up to 35% from baseline. This level of intraocular pressure reduction was maintained during the follow up until now.

Substance | successful blebs at month 4 (filtering bleb) | reduction in intraocular pressure (rat eye) | reduction in intraocular pressure (rabbit eye) | intraocular pressure versus baseline (diabetic patients; 1 month after starting insulin therapy, twelve diabetic patients) | reduction in intraocular pressure from baseline (diabetic patients; after 2 months of insulin therapy, all cases)
denaturized insulin: similar insulin preparation that was denaturized, used as control | 2 out of 5 | no stastistically significant change | no stastistically significant change | – | –
insulin | 4 out of 5 | – | – | significantly lower than baseline values only in 5 patients | higher than 15%
